Measured values published in PubChem BioAssay AID248 (DTP/NCI, 2004).
“And” between values parts separate entries of the source, which are not always exact repeats. Equal entries are not always repeated. Inconclusive results and toxic doses are left out. No stated cut-off is given here; in the data, active means T/C of 150% or more; inactive means T/C below 125%.

Test system: L1210 leukemia ip in BDF1 mice, survival T/C
Test: NCI In Vivo Anticancer Drug Screen. Data for tumor model L1210 Leukemia (intraperitoneal) in B6D2F1 (BDF1) mice
Conditions: endpoint: mean survival time, higher = longer survival
Outline: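 Read-out is survival time, reported as the treated-group measurement over the vehicle-control measurement.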

[1] = dose: 100.0 mg/kg/injection, schedule: Q01DX009 (ip), vehicle: Klucel (hydroxypropylcellulose) (HPC)
[2] = dose: 200.0 mg/kg/injection, schedule: Q01DX009 (ip), vehicle: Klucel (hydroxypropylcellulose) (HPC)
[3] = dose: 400.0 mg/kg/injection, schedule: Q01DX009 (ip), vehicle: Klucel (hydroxypropylcellulose) (HPC)
[4] = dose: 100.0 mg/kg/injection, schedule: Q01DX009 (ip), vehicle: saline with Tween-80
[5] = dose: 100.0 mg/kg/injection, schedule: Q01DX001 (ip), vehicle: carboxymethylcellulose (CMC)
[6] = dose: 200.0 mg/kg/injection, schedule: Q01DX001 (ip), vehicle: carboxymethylcellulose (CMC)
[7] = dose: 50.0 mg/kg/injection, schedule: Q01DX001 (ip), vehicle: saline
[8] = dose: 100.0 mg/kg/injection, schedule: Q01DX001 (ip), vehicle: saline
[9] = dose: 200.0 mg/kg/injection, schedule: Q01DX001 (ip), vehicle: saline
[10] = dose: 400.0 mg/kg/injection, schedule: Q01DX001 (ip), vehicle: saline
[11] = dose: 100.0 mg/kg/injection, schedule: Q04DX003 (ip), vehicle: saline with Tween-80
[12] = dose: 200.0 mg/kg/injection, schedule: Q04DX003 (ip), vehicle: saline with Tween-80

Measured: T/C

Cc1ccc(NC(=O)c2cccc(F)c2)cc1Cl
inactive: dose: 100.0 mg/kg/injection, schedule: Q01DX001 (ip), vehicle: Klucel (hydroxypropylcellulose) (HPC) 97 % of control | [1] 94 % of control and 92 % of control | dose: 100.0 mg/kg/injection, schedule: Q04DX002 (ip), vehicle: Klucel (hydroxypropylcellulose) (HPC) 101 % of control and 104 % of control | dose: 200.0 mg/kg/injection, schedule: Q01DX001 (ip), vehicle: Klucel (hydroxypropylcellulose) (HPC) 100 % of control | [2] 105 % of control and 92 % of control | dose: 200.0 mg/kg/injection, schedule: Q04DX002 (ip), vehicle: Klucel (hydroxypropylcellulose) (HPC) 96 % of control and 104 % of control | dose: 400.0 mg/kg/injection, schedule: Q01DX001 (ip), vehicle: Klucel (hydroxypropylcellulose) (HPC) 100 % of control | [3] 97 % of control and 92 % of control | dose: 400.0 mg/kg/injection, schedule: Q04DX002 (ip), vehicle: Klucel (hydroxypropylcellulose) (HPC) 104 % of control and 109 % of control

O=[N+]([O-])/C=C\C(Cl)(Cl)Cl
inactive: dose: 6.25 mg/kg/injection, schedule: Q01DX009 (ip), vehicle: saline with Tween-80 96 % of control | dose: 12.5 mg/kg/injection, schedule: Q01DX009 (ip), vehicle: saline with Tween-80 87 % of control

CC(C)([CH2][Sn]([CH2]C(C)(C)c1ccccc1)([CH2]C(C)(C)c1ccccc1)[CH2]C(C)(C)c1ccccc1)c1ccccc1
inactive: dose: 5.0 mg/kg/injection, schedule: Q01DX009 (sc), vehicle: olive oil, sesame oil, peanut oil 102 % of control | dose: 5.0 mg/kg/injection, schedule: Q04DX003 (sc), vehicle: olive oil, sesame oil, peanut oil 92 % of control | dose: 10.0 mg/kg/injection, schedule: Q01DX009 (sc), vehicle: olive oil, sesame oil, peanut oil 107 % of control | dose: 10.0 mg/kg/injection, schedule: Q04DX003 (sc), vehicle: olive oil, sesame oil, peanut oil 92 % of control | dose: 20.0 mg/kg/injection, schedule: Q01DX009 (sc), vehicle: olive oil, sesame oil, peanut oil 102 % of control | dose: 20.0 mg/kg/injection, schedule: Q04DX003 (sc), vehicle: olive oil, sesame oil, peanut oil 92 % of control

CC(C)(C)c1ccc(C(c2ccc(C(C)(C)C)cc2)C(Cl)(Cl)Cl)cc1
inactive: [4] 88 % of control | dose: 100.0 mg/kg/injection, schedule: Q04DX003 (ip), vehicle: saline sonified 98 % of control | dose: 200.0 mg/kg/injection, schedule: Q01DX009 (ip), vehicle: saline with Tween-80 94 % of control | dose: 200.0 mg/kg/injection, schedule: Q04DX003 (ip), vehicle: saline sonified 95 % of control | dose: 400.0 mg/kg/injection, schedule: Q01DX009 (ip), vehicle: saline with Tween-80 92 % of control | dose: 400.0 mg/kg/injection, schedule: Q04DX003 (ip), vehicle: saline sonified 97 % of control

COc1cccc(N2C(=O)CC(=P(c3ccccc3)(c3ccccc3)c3ccccc3)C2=O)c1
inactive: dose: 75.0 mg/kg/injection, schedule: Q01DX001 (ip), vehicle: saline 96 % of control | dose: 150.0 mg/kg/injection, schedule: Q01DX001 (ip), vehicle: saline 95 % of control

OC(c1cc(-c2cccc(Cl)c2)nc2ccccc12)C1CCCCN1 (centres undefined)
inactive: dose: 50.0 mg/kg/injection, schedule: Q01DX001 (ip), vehicle: carboxymethylcellulose (CMC) 92 % of control | [5] 90 % of control | [6] 95 % of control

COc1ccccc1CCC=O
inactive: [7] 96 % of control | [8] 96 % of control | [9] 102 % of control | [10] 102 % of control

CC1=CC(=O)C(C(C)C)C1 (centres undefined)
inactive: dose: 100.0 mg/kg/injection, schedule: Q01DX001 (ip), vehicle: other 98 % of control | dose: 200.0 mg/kg/injection, schedule: Q01DX001 (ip), vehicle: other 109 % of control | dose: 400.0 mg/kg/injection, schedule: Q01DX001 (ip), vehicle: other 95 % of control

CSC(=S)N/N=C(\C)c1ccccn1
inactive: [11] 107 % of control

CC(C)(C)Sc1nc2ccccc2s1
inactive: dose: 25.0 mg/kg/injection, schedule: Q04DX002 (ip), vehicle: saline with Tween-80 93 % of control | dose: 50.0 mg/kg/injection, schedule: Q04DX002 (ip), vehicle: saline with Tween-80 93 % of control | dose: 100.0 mg/kg/injection, schedule: Q04DX002 (ip), vehicle: saline with Tween-80 96 % of control | dose: 200.0 mg/kg/injection, schedule: Q04DX002 (ip), vehicle: saline with Tween-80 105 % of control and 119 % of control | dose: 400.0 mg/kg/injection, schedule: Q04DX002 (ip), vehicle: saline with Tween-80 107 % of control

NC1=C(c2ccccc2)C(=O)C(N)=C(c2ccccc2)C1=O
inactive: [5] 96 % of control | [6] 88 % of control | dose: 400.0 mg/kg/injection, schedule: Q01DX001 (ip), vehicle: carboxymethylcellulose (CMC) 88 % of control

CC(=O)OCC1OC(N2C(=O)NC(=O)C3C4OC(=O)OC4C32)C(OC(C)=O)C1OC(C)=O (centres undefined)
inactive: dose: 25.0 mg/kg/injection, schedule: Q01DX005 (ip), vehicle: other 108 % of control | dose: 50.0 mg/kg/injection, schedule: Q01DX005 (ip), vehicle: other 100 % of control | dose: 100.0 mg/kg/injection, schedule: Q01DX005 (ip), vehicle: other 106 % of control | dose: 200.0 mg/kg/injection, schedule: Q01DX005 (ip), vehicle: other 106 % of control | dose: 400.0 mg/kg/injection, schedule: Q01DX005 (ip), vehicle: other 108 % of control

O=C(O)CN(CC(=O)O)c1ccccc1
inactive: [7] 103 % of control | [8] 92 % of control | [9] 103 % of control | [10] 95 % of control

C/C(=C\Cl)CO
inactive: [11] 97 % of control | [12] 95 % of control

CCC(C)(C)c1ccc(O)cc1
inactive: dose: 50.0 mg/kg/injection, schedule: Q01DX009 (ip), vehicle: saline with Tween-80 102 % of control | [4] 100 % of control

CCCCOCCOCCOc1ccc(C(=O)O)cc1
inactive: dose: 50.0 mg/kg/injection, schedule: Q01DX009 (ip), vehicle: acetone 102 % of control | dose: 100.0 mg/kg/injection, schedule: Q01DX009 (ip), vehicle: acetone 97 % of control | dose: 100.0 mg/kg/injection, schedule: Q04DX003 (ip), vehicle: saline 94 % of control | dose: 200.0 mg/kg/injection, schedule: Q01DX009 (ip), vehicle: acetone 102 % of control | dose: 200.0 mg/kg/injection, schedule: Q04DX003 (ip), vehicle: saline 94 % of control

CCCCCCCC[Si](C)(C)C
inactive: [8] 100 % of control | [9] 97 % of control | [10] 115 % of control

CCC(C)NC(=O)C1C2CC3OC(=O)C1C3C2 (centres undefined)
inactive: [11] 106 % of control and 98 % of control | [12] 101 % of control and 98 % of control | dose: 400.0 mg/kg/injection, schedule: Q04DX003 (ip), vehicle: saline with Tween-80 95 % of control and 98 % of control

CCOc1ccc2nc(/C=C\c3cc4c5c(c3)CCCN5CCC4)ccc2c1
inactive: [1] 87 % of control | dose: 100.0 mg/kg/injection, schedule: Q04DX003 (ip), vehicle: Klucel (hydroxypropylcellulose) (HPC) 95 % of control | [2] 97 % of control | dose: 200.0 mg/kg/injection, schedule: Q04DX003 (ip), vehicle: Klucel (hydroxypropylcellulose) (HPC) 98 % of control | [3] 97 % of control | dose: 400.0 mg/kg/injection, schedule: Q04DX003 (ip), vehicle: Klucel (hydroxypropylcellulose) (HPC) 98 % of control
